According to patent publication US7247734B2 (Vernalis (Cambridge) Limited, priority 2001, dated 2007):

Test system: HSP70 and client protein (CDK4) expression in HT29 cells
Test: Western blotting of HSP70 and CDK4 in HT29 cells
Assay type: cell-based, human
Conditions: 24 hours, various concentrations
Method: The cellular effects of HSP90 inhibitors can be measured using a number of molecular markers. As already mentioned, HSP90 inhibition leads to the depletion of several important cellular signalling proteins. […] Depletion is normally observed by 6 h, with maximum depletion occurring at 24 h. As well as RAF-1, depletion of several other HSP90 client proteins can be measured by immunoblotting e.g., CDK4, ERBB2. However, it is important to note that some of these proteins are cell line specific e.g., ERBB2 is expressed mainly in breast, thyroid, kidney and some ovarian tumour cell lines. Another very important marker of HSP90 inhibition is heat shock protein 70 (HSP70). A HSF-1 (heatshock factor 1) dependent increase in HSP70 levels has been reported by us and other groups (see, e.g., Whitesell et al., 1994; Clarke et al., 2000) and this effect can serve as a positive indicator of HSP90 inhibitor action. The immunoblotting method described is based on standard techniques but is described in detail for ease of reference.
Prepare as required and store at −20° C. • (4) Bicinchoninic acid (BCA) protein assay reagents (PerBio Science UK, Ltd., Chester, UK). • (5) Casein blocking buffer (0.5% casein, 0.02% thimerosal, in PBS). Store at 4° C. for up to 2 weeks. • (6) Wash buffer (phosphate buffered saline, PBS) containing 0.05% Tween 20). • (7) Tris-glycine gradient polyacrylamide precast gels (4–20%) (1 mm thick) (Novex, InVitrogen, Groningen, NL). • (8) Nitro-cellulose membrane (0.2 μm pore size) (InVitrogen, Groningen, NL). • (9) Ponceau Red stain (2% w/v in 30% TCA/30% […], Sigma Aldrich Ltd., Pool, UK). • (10) Enhanced chemiluminescence (SuperSignal) reagents (PerBio Science UK, Ltd., Chester, UK). • (11) Photographic film (Hyperfilm ECL, Amersham Pharmacia Biotech, Little Chalfont, Bucks, UK). Method
The following protocol was used: • (1) Lyse cells (approx 4×10^6) in 100 μl lysis buffer for 30 minutes on ice. When adding the lysis buffer, shear cells by pipetting up and down using a Gilson P200 pipette. • (2) Spin lysates for 10 min at 13,000 rpm at 4° C., retrieve supernatant and store at −70° C. • (3) Determine protein concentration using BCA protein assay reagents. • (4) Load samples of cell lysates (50 μg protein/lane) onto gel and separate proteins by SDS-polyacrylamide gel electrophoresis (SDS-PAGE) using a 4–20% Tris-glycine gel. • (5) Transfer proteins to nitrocellulose membrane using optimum conditions for the equipment available. For example, 150 mA for 2 h using the Mighty Small transfer system (Hoeffer TE22 Mini Tank Transphor Unit, Amersham Pharmacia Biotech, Little Chalfont, Bucks, UK). […]
Comments • (1) The protein bands are normally evaluated visually. […]

CCc1cc(-c2n[nH]c(C)c2-c2ccc3c(c2)OCCO3)c(O)cc1O [CCT018159, 4-[4-(2,3-Dihydro-benzo[1,4]dioxin-6-yl)-5-methyl-1H-pyrazol-3-yl]-6-ethyl-benzene-1,3-diol]
CDK4 client protein expression (immunoblot): depleted | HSP70 expression (immunoblot): elevated HSP70 expression
